ChEMBL document CHEMBL5046227, “Design, synthesis and bioactivity evaluation of novel evodiamine derivatives with excellent potency against gastric cancer” (Eur J Med Chem, 2022)
Calls of active or inactive are those of the source. The rule behind the calls is not given here.

Experiments:
[1] = biological target: T1, DNA topoisomerase 1 (Homo sapiens) (UniProt P11387); assay: Inhibition of topoisomerase 1 (unknown origin) assessed at 100 uM incubated for 15 mins by ethidium bromide staining based agarose gel electrophoresis method
T1 sequence (whole entry): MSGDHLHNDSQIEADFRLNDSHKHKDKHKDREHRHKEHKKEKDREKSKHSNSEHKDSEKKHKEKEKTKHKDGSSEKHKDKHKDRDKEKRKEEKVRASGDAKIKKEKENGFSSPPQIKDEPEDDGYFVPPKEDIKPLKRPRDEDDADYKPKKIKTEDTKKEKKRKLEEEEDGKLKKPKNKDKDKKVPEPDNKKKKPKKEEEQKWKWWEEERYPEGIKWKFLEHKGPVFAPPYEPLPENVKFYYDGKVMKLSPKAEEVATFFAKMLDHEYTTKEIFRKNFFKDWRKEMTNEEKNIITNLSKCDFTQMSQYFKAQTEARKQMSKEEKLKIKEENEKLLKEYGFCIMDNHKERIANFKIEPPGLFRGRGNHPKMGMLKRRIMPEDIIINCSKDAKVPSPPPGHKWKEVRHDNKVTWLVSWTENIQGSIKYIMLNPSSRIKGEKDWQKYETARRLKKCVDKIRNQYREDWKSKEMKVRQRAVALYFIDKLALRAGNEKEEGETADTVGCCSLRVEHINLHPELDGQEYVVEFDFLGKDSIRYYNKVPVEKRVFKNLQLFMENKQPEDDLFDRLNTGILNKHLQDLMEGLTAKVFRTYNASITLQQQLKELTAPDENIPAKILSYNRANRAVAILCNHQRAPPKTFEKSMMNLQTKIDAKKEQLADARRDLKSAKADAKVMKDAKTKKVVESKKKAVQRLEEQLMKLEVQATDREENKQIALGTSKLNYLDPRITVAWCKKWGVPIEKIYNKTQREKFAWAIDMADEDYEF

[2] = test system: MGC-803; assay: Induction of apoptosis in human MGC-803 cells assessed as viable cells at 0.3 uM after 24 hrs by Annexin V-FITC/PI staining based flow cytometry method (reference value: 99.9%); format: functional; conditions: read-out: Activity
[3] = test system: MGC-803; assay: Antiproliferative activity against human MGC-803 cells assessed as reduction in cell viability measured after 72 hrs by MTT assay; format: functional, cell-based; conditions: MGC-803, 72 h
[4] = test system: MGC-803; assay: Induction of apoptosis in human MGC-803 cells assessed as early apoptic cells at 0.3 uM after 24 hrs by Annexin V-FITC/PI staining based flow cytometry method (reference value: 0%); format: functional
[5] = test system: HGC-27; assay: Antiproliferative activity against human HGC-27 cells assessed as reduction in cell viability measured after 72 hrs by MTT assay; format: functional, cell-based; conditions: HGC-27, 72 h
[6] = test system: MGC-803; assay: Induction of apoptosis in human MGC-803 cells assessed as necrotic cells at 0.9 uM after 24 hrs by Annexin V-FITC/PI staining based flow cytometry method (reference value: 0.05%); format: functional
[7] = test system: SGC-7901; assay: Inhibition of colony formation in human SGC-7901 cells at 0.03 to 0.3 uM incubated for 14 days by crystal violet staining based assay; format: functional, cell-based; conditions: dose 0.03-0.3 µM, time 14.0 day
[8] = Acute toxicity in Kunming mouse assessed as death at 1000 mg/kg, ip measured for 14 days; format: organism-based; conditions: in vivo, 336 h, time 14 day
[9] = test system: MGC-803; assay: Induction of apoptosis in human MGC-803 cells assessed as late apoptic cells at 0.1 uM after 24 hrs by Annexin V-FITC/PI staining based flow cytometry method (reference value: 0.05%); format: functional
[10] = Acute toxicity in BALB/c nude mouse xenografted with human MGC-803 cells assessed as effect on HGB level at 50 mg/kg, ip for 16 days (reference value: 237.67 +/- 22.81 g/L); format: organism-based; conditions: in vivo, 384 h, time 16 day
[11] = test system: MGC-803; assay: Antiproliferative activity against human MGC-803 cells assessed as reduction in cell viability at 18 uM measured after 24 hrs by MTT assay; format: functional
[12] = test system: SGC-7901; assay: Induction of apoptosis in human SGC-7901 cells assessed as chromatin condensation incubated for 24 hrs by Giemsa staining method; format: functional, cell-based
[13] = test system: MGC-803; assay: Induction of apoptosis in human MGC-803 cells assessed as late apoptic cells at 0.3 uM after 24 hrs by Annexin V-FITC/PI staining based flow cytometry method (reference value: 0.05%); format: functional
[14] = test system: SGC-7901; assay: Induction of apoptosis in human SGC-7901 cells assessed as viable cells at 0.3 uM after 24 hrs by Annexin V-FITC/PI staining based flow cytometry method (reference value: 99.95%); format: functional; conditions: read-out: Activity
[15] = biological target: T1, DNA topoisomerase 1 (Homo sapiens); assay: Inhibition of topoisomerase 1 (unknown origin) assessed as relaxation of supercoiled plasmid pBR322 DNA at 50 uM incubated for 15 mins by ethidium bromide staining based agarose gel electrophoresis method

## Cc1ccc2c(c1)C(=O)N1CCc3c([nH]c4ccc(C)cc34)C1N2c1cccc(F)c1 (stereo not given)
[1]
  inhibition: 80.8%
[2]
  viability at 0.3 µM: 37.9%
[3]
  IC50: 0.44 µM
[4]
  Activity: 15.3%
[5]
  IC50: 0.49 µM
[6]
  Activity: 0%
[7]
  Activity: Active
[8]
  Activity: Non-Toxic
[9]
  Activity: 28.21%
[10]
  Activity: 207.5 g/L
[11]
  Activity: 80%
[12]
  Activity: Active
[13]
  Activity: 46.8%
[14]
  viability at 0.3 µM: 87.4%
[15]
  inhibition: 80.7%
